Assay results from the NIST ThermoML archive (doi:10.1021/je049787p).

Test: xn = mol fraction of the nth substance listed
Conditions: 101.3 kPa, Liquid; for electrical conductivity: Alternating current cell with electrodes

C=CCn1cc[n+](C)c1.[Cl-] [1-allyl-3-methylimidazolium chloride] + CCO
Conditions | electrical conductivity, 293.15 K [S/m] | electrical conductivity, 303.15 K [S/m] | electrical conductivity, 313.15 K [S/m] | electrical conductivity, 323.15 K [S/m] | electrical conductivity, 333.15 K [S/m] | viscosity, 293.15 K [mPa·s] | viscosity, 303.15 K [mPa·s] | viscosity, 313.15 K [mPa·s] | viscosity, 323.15 K [mPa·s] | viscosity, 333.15 K [mPa·s]
x2 = 0 | 0.382 | 0.44 | 0.501 | 0.562 | 0.624 | 66 | 44.7 | 25.3 | 20.6 | 16.2
x2 = 0.1 | 0.485 | 0.543 | 0.604 | 0.66 | 0.722 | 54.6 | 44.1 | 24.6 | 20 | 16
x2 = 0.2 | 0.627 | 0.682 | 0.74 | 0.801 | 0.859 | 45.7 | 42.2 | 24.1 | 19.5 | 15.4
x2 = 0.3 | 0.703 | 0.759 | 0.818 | 0.876 | 0.935 | 39.1 | 30.9 | 22.6 | 18.7 | 15.1
x2 = 0.35 | 0.8 | 0.855 | 0.91 | 0.969 | 1.02 | 30.5 | 25.1 | 19.4 | 16 | 14.4
x2 = 0.45 | 0.884 | 0.943 | 0.999 | 1.06 | 1.11 | 26.4 | 22.1 | 20.1 | 16.7 | 13.1
x2 = 0.5 | 0.952 | 1.01 | 1.06 | 1.11 | 1.17 | 23.2 | 18.1 | 15.3 | 13.6 | 11.2
x2 = 0.55 | 1.03 | 1.09 | 1.14 | 1.2 | 1.25 | 20.4 | 16.3 | 14 | 12.5 | 10.1

C=CCn1cc[n+](C)c1.[Cl-] [1-allyl-3-methylimidazolium chloride] + O
Conditions | electrical conductivity, 293.15 K [S/m] | electrical conductivity, 303.15 K [S/m] | electrical conductivity, 313.15 K [S/m] | electrical conductivity, 323.15 K [S/m] | electrical conductivity, 333.15 K [S/m] | viscosity, 293.15 K [mPa·s] | viscosity, 303.15 K [mPa·s] | viscosity, 313.15 K [mPa·s] | viscosity, 323.15 K [mPa·s] | viscosity, 333.15 K [mPa·s]
x2 = 0 | 0.382 | 0.44 | 0.501 | 0.562 | 0.624 | 66 | 44.7 | 25.3 | 20.6 | 16.2
x2 = 0.3 | 0.817 | 0.874 | 0.93 | 0.985 | 1.04 | 51.3 | 40.7 | 24.1 | 19.6 | 15
x2 = 0.45 | 1.11 | 1.17 | 1.23 | 1.28 | 1.33 | 42.7 | 31.4 | 22.9 | 18.2 | 15.1
x2 = 0.59 | 1.36 | 1.42 | 1.47 | 1.53 | 1.58 | 34.4 | 27.5 | 22.7 | 18.3 | 14.9
x2 = 0.65 | 1.55 | 1.61 | 1.66 | 1.72 | 1.77 | 29.1 | 24.2 | 20.9 | 17.6 | 14.3
x2 = 0.7 | 1.73 | 1.78 | 1.84 | 1.89 | 1.94 | 26.1 | 22 | 19.5 | 16.4 | 13
x2 = 0.75 | 1.84 | 1.89 | 1.95 | 2 | 2.05 | 22.6 | 18.7 | 15.4 | 12.2 | 10.1
x2 = 0.8 | 1.93 | 1.99 | 2.04 | 2.09 | 2.14 | 19.3 | 15.6 | 12.7 | 11.1 | 9.2
